Laboratory results published in article PMC3726007 (Journal of medicinal chemistry, 2009).
Entries after “also recorded” stand apart in the source; their conditions may differ. Structures can show the parent of a compound that is named as a salt. Each block holds one molecule with its values, some of them ahead of it.

Experiments:
[1] = molecular target: VMAT2 (Rattus norvegicus, UniProt Q01827); test: [3H]-DA uptake inhibition assay in isolated synaptic vesicles; settings: for fold more potent in inhibiting [3H]-DA uptake than in binding to the DTBZ binding site: uptake vs DTBZ binding; for fold less potent in [3H]-DA uptake inhibition than comparator: 7 vs 2, 26 vs 25; for fold more potent in [3H]-DA uptake inhibition than S-configured analogs: 18 and 19 vs 14 and 15
Chain of VMAT2 (Q01827 whole entry): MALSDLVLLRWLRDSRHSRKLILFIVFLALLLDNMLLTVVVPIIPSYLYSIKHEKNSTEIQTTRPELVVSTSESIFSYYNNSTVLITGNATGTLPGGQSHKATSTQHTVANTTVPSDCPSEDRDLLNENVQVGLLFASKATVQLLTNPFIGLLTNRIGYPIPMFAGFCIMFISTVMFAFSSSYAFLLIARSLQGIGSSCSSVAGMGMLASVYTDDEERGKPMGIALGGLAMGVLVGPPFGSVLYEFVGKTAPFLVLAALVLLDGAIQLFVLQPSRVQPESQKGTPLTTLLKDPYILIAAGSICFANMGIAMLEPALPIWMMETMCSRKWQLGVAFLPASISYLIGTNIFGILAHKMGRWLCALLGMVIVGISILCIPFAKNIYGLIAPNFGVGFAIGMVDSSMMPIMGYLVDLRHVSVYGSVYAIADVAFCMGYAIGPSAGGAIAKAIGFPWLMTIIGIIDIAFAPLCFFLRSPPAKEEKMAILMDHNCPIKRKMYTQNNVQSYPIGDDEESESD

[2] = molecular target: DTBZ binding site on VMAT2 (Rattus norvegicus, UniProt Q01827); test: [3H]DTBZ binding assay in rat brain synaptic vesicles; settings: for fold less potent at DTBZ binding site than comparator: 7 vs 2, 26 vs 25
Chain of DTBZ binding site on VMAT2 (Q01827 whole entry): as above

[3] = test system: methamphetamine self-administration; settings: animal models; cited from earlier work
[4] = test system: α4β2* nicotinic acetylcholine receptors (nAChRs); settings: cited from earlier work
[5] = water solubility; assay type: physicochemical; settings: qualitative statement

SMILES: c1ccc(CC[C@H]2CCC[C@@H](CCc3ccccc3)N2)cc1 [Compound 3, reference compound]
fold more potent in inhibiting [3H]-DA uptake than in binding to the DTBZ binding site [1]: about 100 fold

SMILES: CN1[C@H](CCc2ccccc2)CC[C@@H]1CCc1ccccc1 [Compound 7, 1-Methyl-cis-2,5-di-(2-phenethyl)-pyrrolidine hydrochloride]
fold less potent at DTBZ binding site than comparator [2]: about 10 fold | fold less potent in [3H]-DA uptake inhibition than comparator [1]: 10 fold | fold more potent in inhibiting [3H]-DA uptake than in binding to the DTBZ binding site [1]: about 30 fold

SMILES: OC[C@@H](c1ccccc1)N1[C@H](CCc2ccccc2)CC[C@@H]1CCc1ccccc1 [Compound 18, (2′R)-2-(2S,5R)-2,5-Di-(2-phenethyl)-tetrahydro-1H-1-pyrrolyl-2-phenylethan-1-ol]
fold more potent in [3H]-DA uptake inhibition than S-configured analogs [1]: about 10 fold

SMILES: CN1[C@H](CCCc2ccccc2)CC[C@@H]1CCCc1ccccc1 [Compound 26, 1-Methyl-cis-2,5-di(3-phenylpropyl)-pyrrolidine hydrochloride]
fold less potent at DTBZ binding site than comparator [2]: 10 fold | fold less potent in [3H]-DA uptake inhibition than comparator [1]: about 10 fold | fold more potent in inhibiting [3H]-DA uptake than in binding to the DTBZ binding site [1]: about 20 fold

fold more potent in inhibiting [3H]-DA uptake than in binding to the DTBZ binding site [1]: about 20 fold
SMILES: c1ccc(CCC[C@@H]2CC[C@H](CCCc3ccccc3)N2)cc1 [Compound 25, Cis-2,5-di(3-phenylpropyl)-pyrrolidine hydrochloride]

SMILES: CN1[C@@H](CCc2ccccc2)CCC[C@H]1CCc1ccccc1 [Compound 2, cis-N-methyl-2,6-diphenethylpiperidine]
effect on self-administration [3]: decreases methamphetamine self-administration; also recorded: does not itself support self-administration | affinity for α4β2* nAChRs [4]: little affinity

SMILES: OC[C@@H](c1ccccc1)N1[C@@H](CCc2ccccc2)CC[C@@H]1CCc1ccccc1 [Compound 19, (2′R)-2-(2S,5S)-2,5-Di(2-phenethyl)-tetrahydro-1H-1-pyrrolyl-2-phenylethan-1-ol]
fold more potent in [3H]-DA uptake inhibition than S-configured analogs [1]: about 10 fold

SMILES: CN1[C@@H](CC(=O)c2ccccc2)CCC[C@H]1C[C@H](O)c1ccccc1 [Compound 1, lobeline]
affinity for α4β2* nAChRs [4]: high potency

SMILES: c1ccc(CC[C@@H]2CC[C@H](CCc3ccccc3)N2)cc1 [Compound 6, cis-2,5-Di-(2-phenethyl)-pyrrolidine hydrochloride]
fold more potent in inhibiting [3H]-DA uptake than in binding to the DTBZ binding site [1]: about 100 fold

SMILES: c1ccc(CC[C@H]2CC[C@H](CCc3ccccc3)N2)cc1 [Compound 10, (2S,5S)-di-(2-phenethyl)-pyrrolidine hydrochloride]
fold more potent at DTBZ binding site than N-methyl derivative ([2]; 10 vs 11): about 10 fold

water solubility [5]: water-soluble
SMILES: c1ccc(C[C@H]2CC[C@@H](Cc3ccccc3)N2)cc1 [Compound 22, cis-2,5-Di(2-benzyl)-pyrrolidine hydrochloride]
